{"source": "patent US20250230193A1", "about": "“CYCLIC COMPOUND HAVING SELECTIVE KRAS INHIBITORY EFFECT ON HRAS AND NRAS” (CHUGAI SEIYAKU KABUSHIKI KAISHA, priority 2022, published 2025)", "key": {"[1]": {"target": "GDP-bound NRAS wild-type protein (Homo sapiens, UniProt P01111)", "sequence (P01111 whole entry)": "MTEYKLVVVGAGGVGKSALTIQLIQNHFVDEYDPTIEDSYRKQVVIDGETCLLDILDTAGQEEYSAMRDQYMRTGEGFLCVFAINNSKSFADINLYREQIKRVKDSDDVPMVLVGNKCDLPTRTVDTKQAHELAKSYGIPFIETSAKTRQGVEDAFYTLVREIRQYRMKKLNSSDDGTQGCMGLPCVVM", "assay": "Binding to NRAS by surface plasmon resonance (SPR), Single Cycle Kinetics", "conditions": "SPR; for NRAS/KRAS (ratio of KD value for NRAS to KD value for KRAS) / NRAS/KRAS (ratio of KD value with respect to NRAS to KD value with respect to KRAS): GDP-bound NRAS wild-type vs GDP-bound KRAS wild-type"}, "[2]": {"target": "GDP-bound HRAS wild-type protein (Homo sapiens, UniProt P01112)", "sequence (P01112 whole entry)": "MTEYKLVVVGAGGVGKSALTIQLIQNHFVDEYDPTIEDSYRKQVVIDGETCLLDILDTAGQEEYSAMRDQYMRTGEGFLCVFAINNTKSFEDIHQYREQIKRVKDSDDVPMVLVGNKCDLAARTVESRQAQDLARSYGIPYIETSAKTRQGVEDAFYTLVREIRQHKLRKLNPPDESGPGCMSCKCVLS", "assay": "Binding to HRAS by surface plasmon resonance (SPR), Single Cycle Kinetics", "conditions": "SPR; for HRAS/KRAS (ratio of KD value for HRAS to KD value for KRAS) / HRAS/KRAS (ratio of KD value with respect to HRAS to KD value with respect to KRAS): GDP-bound HRAS wild-type vs GDP-bound KRAS wild-type"}}, "note": "Where a SMILES comes first, the peptide text is derived from it. Bridges are numbered along the chain shown (N, C = ends). [ ]: non-standard residue; d: D form. The star is where a group is joined. hPhe(3-Cl-4-CF3) = N[C@@H](CCc1ccc(C(F)(F)F)c(Cl)c1)C(=O)O; NPrPhe(4-CF3) = CCCN[C@@H](Cc1ccc(C(F)(F)F)cc1)C(=O)O; NMeGly(cPent) = CN[C@H](C(=O)O)C1CCCC1; Hyp = O=C(O)[C@@H]1C[C@@H](O)CN1; NMeL = CN[C@@H](CC(C)C)C(=O)O; Morpholide = C1CN(*)CCO1; NMeA = CN[C@@H](C)C(=O)O; Aze = O=C(O)[C@@H]1CCN1; Ac4c = NC1(C(=O)O)CCC1; Sar = CNCC(=O)O", "data": [{"compound": "CCCN1C(=O)CN(C)C(=O)CNC(=O)[C@H]([C@@H](C)CC)NC(=O)[C@H](CC(C)C)N(C)C(=O)C[C@@H](C(=O)N2CCOCC2)NC(=O)[C@H](C2CCCC2)N(C)C(=O)C2(CCC2)NC(=O)[C@@H]2C[C@@H](OCC)CN2C(=O)[C@H](CCc2ccc(C(F)(F)F)c(Cl)c2)NC(=O)CN(C)C(=O)[C@@H]1Cc1ccc(C(F)(F)F)cc1", "note": "[PP0330] ([NMeL]IG[Sar][NPrPhe(4-CF3)][Sar][hPhe(3-Cl-4-CF3)][Hyp](Et)[Ac4c][NMeGly(cPent)]D-Morpholide; lactam N-11)", "values": [{"measurement": "NRAS/KRAS (ratio of KD for GDP-bound NRAS wild-type to KD for KRAS)", "setting": "[1]", "result": "B (a compound having 3 or more and less than 10 is denoted as B)"}, {"measurement": "HRAS/KRAS (ratio of KD for GDP-bound HRAS wild-type to KD for KRAS)", "setting": "[2]", "result": "C (A compound having a KD ratio of 0.1 or more and less than 3 is denoted as C)"}]}, {"compound": "CCO[C@@H]1C[C@H]2C(=O)NC3(CC(C)(C)C3)C(=O)N(C)[C@@H](C3CCCC3)C(=O)N(C)[C@H](C(=O)N(C)CC)CC(=O)N(C)[C@@H](C(C)C)C(=O)N[C@@H]([C@@H](C)CC)C(=O)N(C)CC(=O)N(C)[C@H]3C/C=C\\CCN(C3=O)[C@@H](Cc3ccc(C(F)(F)F)cc3)C(=O)N(C)CC(=O)N[C@@H](CCc3ccc(C(F)(F)F)c(OC)c3)C(=O)N2C1", "note": "[PP1977]", "values": [{"measurement": "NRAS/KRAS (ratio of KD value for NRAS to KD value for KRAS)", "setting": "[1]; KD ratio", "result": "AA (a compound having 20 or more is denoted as AA)"}, {"measurement": "HRAS/KRAS (ratio of KD value for HRAS to KD value for KRAS)", "setting": "[2]; KD ratio", "result": "A (a compound having 10 or more and less than 20 is denoted as A)"}]}, {"compound": "CCCN1C(=O)[C@@H]2CCN2C(=O)[C@H](C)N(C)C(=O)[C@H]([C@@H](C)CC)NC(=O)[C@H](CC(C)C)N(C)C(=O)C[C@@H](C(=O)N(C)C)NC(=O)[C@H](C2CCCC2)N(C)C(=O)C2(CCC2)NC(=O)[C@@H]2C[C@@H](OCC)CN2C(=O)[C@H](CCc2ccc(C(F)(F)F)c(Cl)c2)NC(=O)CN(C)C(=O)[C@@H]1Cc1ccc(C(F)(F)F)cc1", "note": "[PP0384] ([NMeL]I[NMeA][Aze][NPrPhe(4-CF3)][Sar][hPhe(3-Cl-4-CF3)][Hyp](Et)[Ac4c][NMeGly(cPent)]D-NMe2; lactam N-11)", "values": [{"measurement": "NRAS/KRAS (ratio of KD for GDP-bound NRAS wild-type to KD for KRAS)", "setting": "[1]", "result": "C (A compound having a KD ratio of 0.1 or more and less than 3 is denoted as C)"}, {"measurement": "HRAS/KRAS (ratio of KD for GDP-bound HRAS wild-type to KD for KRAS)", "setting": "[2]", "result": "B (a compound having 3 or more and less than 10 is denoted as B)"}]}, {"compound": "CCCCO[C@@H]1C[C@H]2C(=O)NC3(CCC3)C(=O)N(C)[C@@H](C3CCCC3)C(=O)N(C)[C@H](C(=O)N3CCOCC3)CC(=O)N(C)[C@@H](CC(C)C)C(=O)N[C@@H]([C@@H](C)CC)C(=O)N(C)CC(=O)N(C)[C@H]3CCCCN(C3=O)[C@@H](Cc3ccc(C(F)(F)F)cc3)C(=O)N(C)CC(=O)N[C@@H](CCc3cc(F)c(C(F)(F)F)c(F)c3)C(=O)N2C1", "note": "[PP0999]", "values": [{"measurement": "NRAS/KRAS (ratio of KD value with respect to NRAS to KD value with respect to KRAS)", "setting": "[1]; KD ratio", "result": "C (A compound having a KD ratio of 0.1 or more and less than 3 is denoted as C)"}, {"measurement": "HRAS/KRAS (ratio of KD value with respect to HRAS to KD value with respect to KRAS)", "setting": "[2]; KD ratio", "result": "B (a compound having 3 or more and less than 10 is denoted as B)"}]}, {"compound": "CCO[C@@H]1C[C@H]2C(=O)NC3(CCC3)C(=O)N(C)[C@@H](C3CCCC3)C(=O)N(C)[C@H](C(=O)N3CCOCC3)CC(=O)N(C)[C@@H](CC)C(=O)N[C@@H]([C@@H](C)CC)C(=O)N(C)CC(=O)N(C)[C@H]3C/C=C\\CCN(C3=O)[C@@H](Cc3ccc(C(F)(F)F)cc3)C(=O)N(C)CC(=O)N[C@@H](CCc3cc(F)c(C(F)(F)F)c(F)c3)C(=O)N2C1", "note": "[PP1092]", "values": [{"measurement": "NRAS/KRAS (ratio of KD value with respect to NRAS to KD value with respect to KRAS)", "setting": "[1]; KD ratio", "result": "A (a compound having 10 or more and less than 20 is denoted as A)"}, {"measurement": "HRAS/KRAS (ratio of KD value with respect to HRAS to KD value with respect to KRAS)", "setting": "[2]; KD ratio", "result": "A (a compound having 10 or more and less than 20 is denoted as A)"}]}, {"compound": "CCCN(C)C(=O)[C@@H]1CC(=O)N(C)[C@@H](CCOC)C(=O)N[C@@H]([C@@H](C)CC)C(=O)N(C)CC(=O)N(C)[C@H]2C/C=C\\CCN(C2=O)[C@@H](Cc2ccc(C(F)(F)F)cc2)C(=O)N(C)CC(=O)N[C@@H](CCc2ccc(C(F)(F)F)c(OC)c2)C(=O)N2C[C@H](OCC)C[C@H]2C(=O)NC2(CC(C)(C)C2)C(=O)N(C)[C@@H](C2CCCC2)C(=O)N1C", "note": "[PP1975]", "values": [{"measurement": "NRAS/KRAS (ratio of KD value for NRAS to KD value for KRAS)", "setting": "[1]; KD ratio", "result": "A (a compound having 10 or more and less than 20 is denoted as A)"}, {"measurement": "HRAS/KRAS (ratio of KD value for HRAS to KD value for KRAS)", "setting": "[2]; KD ratio", "result": "A (a compound having 10 or more and less than 20 is denoted as A)"}]}, {"compound": "CCCOC[C@H]1C(=O)N[C@@H]([C@@H](C)CC)C(=O)N(C)CC(=O)N(C)[C@H]2C/C=C\\CCN(C2=O)[C@@H](Cc2ccc(C)cc2)C(=O)N(C)CC(=O)N[C@@H](CCc2ccc(C(F)(F)F)c(OC)c2)C(=O)N2C[C@@H](C)C[C@H]2C(=O)NC2(CC(C)(C)C2)C(=O)N(C)[C@@H](C2CCCC2)C(=O)N(C)[C@H](C(=O)N(C)C)CC(=O)N1C", "note": "[PP2447]", "values": [{"measurement": "NRAS/KRAS (ratio of KD value with respect to NRAS to KD value with respect to KRAS)", "setting": "[1]", "result": "A (a compound having 10 or more and less than 20 is denoted as A)"}, {"measurement": "HRAS/KRAS (ratio of KD value with respect to HRAS to KD value with respect to KRAS)", "setting": "[2]", "result": "B (a compound having 3 or more and less than 10 is denoted as B)"}]}]}
